From patent publication US20240108623A1, “METHODS OF TREATING CANCER WITH POZIOTINIB” (BOARD OF REGENTS, THE UNIVERSITY OF TEXAS SYSTEM, priority 2021, published 2024)

Columns and labels:
Assay in all cases: Ba/F3 cell drug screening, Cell Titer Glo
Assay type in all cases: cell-based
EGFR A763insFQEA = target: T1, EGFR A763insFQEA (Homo sapiens, UniProt P00533, INS763FQEA); conditions: Ba/F3 cells expressing EGFR A763insFQEA; 72 hours
T1 construct: expressed in transfected cells; host or cells: Ba/F3 (retroviral, pBabe-Puro based vector)
Summary of the method: (§1)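 Mutant EGFR-driven Ba/F3 cells, maintained in 1 ng/ml EGF, are treated 72 h with a seven-concentration TKI series. Viability is read by CellTiter-Glo, and IC50 derived by variable-slope regression.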

EGFR D761N = target: T2, EGFR D761N (Homo sapiens, UniProt P00533, D761N); conditions: Ba/F3 cells expressing EGFR D761N; 72 hours
T2 construct: expressed in transfected cells; host or cells: Ba/F3 (retroviral, pBabe-Puro based vector)
Summary of the method: as §1

EGFR E709A = target: T3, EGFR E709A (Homo sapiens, UniProt P00533, E709A); conditions: Ba/F3 cells expressing EGFR E709A; 72 hours
T3 construct: expressed in transfected cells; host or cells: Ba/F3 (retroviral transduction, pBabe-Puro based vectors)
Summary of the method: as §1

EGFR Ex19del = target: T4, EGFR Ex19del (Homo sapiens, UniProt P00533, DEL746-750); conditions: Ba/F3 cells expressing EGFR Ex19del; 72 hours
T4 construct: expressed in transfected cells; host or cells: Ba/F3 (retroviral, pBabe-Puro based vector)
Summary of the method: as §1

EGFR Ex19del T790M = target: T5, EGFR Ex19del T790M (Homo sapiens, UniProt P00533, DEL746-750/T790M); conditions: Ba/F3 cells expressing EGFR Ex19del T790M; 72 hours
T5 construct: expressed in transfected cells; host or cells: Ba/F3 (retroviral transduction, pBabe-Puro based vectors)
Summary of the method: as §1

EGFR Ex19del/T790M/G724S = target: T6, EGFR Ex19del/T790M/G724S (Homo sapiens, UniProt P00533, DEL746-750/G724S/T790M); conditions: Ba/F3 cells expressing EGFR Ex19del/T790M/G724S; 72 hours
T6 construct: expressed in transfected cells; host or cells: Ba/F3 (retroviral transduction, pBabe-Puro based vectors)
Summary of the method: as §1

EGFR L718Q T790M = target: T7, EGFR L718Q T790M (Homo sapiens, UniProt P00533, L718Q/T790M); conditions: Ba/F3 cells expressing EGFR L718Q T790M; 72 hours
T7 construct: expressed in transfected cells; host or cells: Ba/F3 (retroviral transduction, pBabe-Puro based vectors)
Summary of the method: as §1

EGFR L747P = target: T8, EGFR L747P (Homo sapiens, UniProt P00533, L747P); conditions: Ba/F3 cells expressing EGFR L747P; 72 hours
T8 construct: expressed in transfected cells; host or cells: Ba/F3 (retroviral transduction, pBabe-Puro based vectors)
Summary of the method: as §1

EGFR L858R = target: T9, EGFR L858R (Homo sapiens, UniProt P00533, L858R); conditions: Ba/F3 cells expressing EGFR L858R; 72 hours
T9 construct: expressed in transfected cells; host or cells: Ba/F3 (retroviral, pBabe-Puro based vector)
Summary of the method: as §1

EGFR L858R T790M L792H = target: T10, EGFR L858R T790M L792H (Homo sapiens, UniProt P00533, L792H/L858R/T790M); conditions: Ba/F3 cells expressing EGFR L858R T790M L792H; 72 hours
T10 construct: expressed in transfected cells; host or cells: Ba/F3 (retroviral transduction, pBabe-Puro based vectors)
Summary of the method: as §1

EGFR L858R/L718V = target: T11, EGFR L858R/L718V (Homo sapiens, UniProt P00533, L718V/L858R); conditions: Ba/F3 cells expressing EGFR L858R/L718V; 72 hours
T11 construct: host or cells: Ba/F3 (retroviral transduction, pBabe-Puro based vectors)
Summary of the method: as §1

EGFR L858R/L792H = target: T12, EGFR L858R/L792H (Homo sapiens, UniProt P00533, L792H/L858R); conditions: Ba/F3 cells expressing EGFR L858R/L792H; 72 hours
T12 construct: expressed in transfected cells; host or cells: Ba/F3 (retroviral transduction, pBabe-Puro based vectors)
Summary of the method: as §1

EGFR N771dupN = target: T13, EGFR N771dupN (Homo sapiens, UniProt P00533, DUP771-771); conditions: Ba/F3 cells expressing EGFR N771dupN; 72 hours
T13 construct: expressed in transfected cells; host or cells: Ba/F3 (retroviral, pBabe-Puro based vector)
Summary of the method: as §1

EGFR S768I/V769L = target: T14, EGFR S768I/V769L (Homo sapiens, UniProt P00533, S768I/V769L); conditions: Ba/F3 cells expressing EGFR S768I/V769L; 72 hours
T14 construct: host or cells: Ba/F3 (retroviral transduction, pBabe-Puro based vectors)
Summary of the method: as §1

EGFR S768dupSVD = target: T15, EGFR S768dupSVD (Homo sapiens, UniProt P00533, DUP768-770); conditions: Ba/F3 cells expressing EGFR S768dupSVD; 72 hours
T15 construct: expressed in transfected cells; host or cells: Ba/F3 (retroviral, pBabe-Puro based vector)
Summary of the method: as §1

EGFR T725M = target: T16, EGFR T725M (Homo sapiens, UniProt P00533, T725M); conditions: Ba/F3 cells expressing EGFR T725M; 72 hours
T16 construct: expressed in transfected cells; host or cells: Ba/F3 (retroviral, pBabe-Puro based vector; created by GeneScript from EGFR WT)
Summary of the method: as §1

C=CC(=O)N1CCC(Oc2cc3c(Nc4ccc(Cl)c(Cl)c4F)ncnc3cc2OC)CC1 [Poziotinib]
Response of Cells Comprising Classical-Like EGFR Mutations to Second-Generation TKIs (EGFR A763insFQEA): 0.06955
Response of Cells Comprising Classical-Like EGFR Mutations to Second-Generation TKIs (EGFR D761N): 0.007859
Response of Cells Comprising PACC EGFR Mutations to Second-Generation TKIs (EGFR E709A): 0.02334
Response of Cells Comprising Classical-Like EGFR Mutations to Second-Generation TKIs (EGFR Ex19del): 0.07456
Response of Cells Comprising T790M-like-S EGFR Mutations to Second-Generation TKIs (EGFR Ex19del T790M): 3.423
Response of Cells Comprising T790M-like-S EGFR Mutations to Second-Generation TKIs (EGFR Ex19del/T790M/G724S): 19.53
Response of Cells Comprising T790M-like-R EGFR Mutations to Second-Generation TKIs (EGFR L718Q T790M): 6.487
Response of Cells Comprising PACC EGFR Mutations to Second-Generation TKIs (EGFR L747P): 0.1338
Response of Cells Comprising Classical-Like EGFR Mutations to Second-Generation TKIs (EGFR L858R): 0.02579
Response of Cells Comprising T790M-like-S EGFR Mutations to Second-Generation TKIs (EGFR L858R T790M L792H): 56.36
Response of Cells Comprising PACC EGFR Mutations to Second-Generation TKIs (EGFR L858R/L718V): 0.01621
Response of Cells Comprising PACC EGFR Mutations to Second-Generation TKIs (EGFR L858R/L792H): 0.07789
Response of Cells Comprising Ex20ins EGFR Mutations to Poziotinib (EGFR N771dupN): 0.04003
Response of Cells Comprising PACC EGFR Mutations to Second-Generation TKIs (EGFR S768I/V769L): 0.04206
Response of Cells Comprising Ex20ins EGFR Mutations to Poziotinib (EGFR S768dupSVD): 0.09327
Response of Cells Comprising Classical-Like EGFR Mutations to Second-Generation TKIs (EGFR T725M): 0.003297
